For this data set, the system named is major neurosurgery patients. The experiment in a line: Aortic Pressure/Flow loop parameters before (T0) and at peak effect (T1) of a vasoconstrictor bolus in anesthetized patients. To be noted: for S2/Stot, Base / Alpha, Base / Beta, Base / Gamma, Base / S1, Base / S2, Base / S3, Base / S tot, Base: Base (T0, before injection); for Alpha, Base / Beta, Base / Gamma, Base: P/F loop angle; for S1, Base: P/F loop surface area S1; for S2, Base: P/F loop surface area S2; for S3, Base: P/F loop surface area S3; for Alpha, Peak / Beta, Peak / Gamma, Peak / S1, Peak / S2, Peak / S2/Stot, Peak / S3, Peak: Peak effect (T1) after peripheral venous bolus; for change in surface areas (Stot, S1, S2, S3) and angles (alpha, beta and gamma): before and after vasoconstriction, predominantly; for S tot, Base / S tot, Peak: total surface area of P/F loop; for S tot, Peak: Peak effect (T1) after peripheral venous bolus (9 mg Ephedrine, 50 μg Neophenylephrine or 5 μg Noradrenaline). The class given is in vivo, human. Also on record: S1, Base / S2, Base / S3, Base / Alpha, Base / Beta, Base / Gamma, Base / Alpha, Variations (Diff) / Beta, Variations (Diff) / Gamma, Variations (Diff) / S1, Variations (Diff) / S2, Variations (Diff) / S3, Variations (Diff): unit not given here. From the text:
1.1 Parameters Measured • The Pressure signal is collected in mmHg (FIG. 2), by means of a radial or femoral arterial catheter. • The esophageal Doppler signal giving the aortic flow in ml/s (FIG. 2) is collected via the Deltex® combi Q monitor. • The Pressure/Flow loop is constructed heart beat by heart beat with the simultaneous values of aortic flow on the x-axis and of pressure on the y-axis.
1.2 Description of the Various Parameters Resulting from the Aortic Pressure/Flow Loop: • the various specific points of the loop (FIG. 3-4): • A: diastolic pressure: the flow is zero before the beginning of systole. • B: maximum flow. • C: maximum pressure (systolic pressure). • D: dicrotic pressure: pressure at closing of the aortic valves: flow at 0, beginning of diastole. • The various specific straight lines of the loop: • straight line passing through points A and B: straight line between the beginning of the cycle and the point where the flow rate is at the maximum. • straight line passing through points A and C: straight line between the beginning of the cycle and the point where the pressure is at the maximum. • The various specific surface areas of the loop (FIG. 5): • Stot: total surface area of the Pressure/Flow loop. • S1: surface area between the lower part of the curve and the straight line (AB). • S2: surface area of the loop included between the two straight lines (AB) and (AC). • S3: surface area of the loop included between the straight line (AC) and the upper edge of the loop. • The various angles of the loop (FIG. 6): • Alpha: angle between the horizontal passing through point A and the straight line (AB). • Beta: angle between the horizontal passing through point A and the straight line (AC). • Gamma: angle between the two straight lines (AB) and (AC).
The study was carried out in the operating theatre on major neurosurgery patients, after agreement from the Ethics Committee (CE SRLF 11-356) and obtaining of informed consent. In addition to the standard monitoring, a device for simultaneous invasive measurement of arterial pressure and measurement of cardiac output by trans-esophageal Doppler (CombiQ®, Deltex Medical) was set out after induction of general anesthesia. Moreover, in order to have a reflection of arterial elastance and of arterial stiffness, an arterial tonometer (SphygmoCor®, AtCor Medical) was used to obtain the curve of central arterial pressure and the arterial stiffness indices. This device is currently the reference for quantifying arterial stiffness (represented by the augmentation index: Aix, FIG. 11) and monitors its evolution as a function of vasoactive therapies.
Patients having episodes of decrease in arterial pressure (decrease of 20% compared with the target pressure) and requiring the administration of a vasoconstrictor were included. Before each injection of […] (T0) and then at the time of the peak effect of the vasopressin (T1) the Pressure/Flow loops were plotted and the parameters derived from the loop were calculated. At the same time, using the SphygmoCor®, the augmentation index (Aix) and the arterial elastance (Ea) were recorded.
Depending on the anesthetists' choice, the patients received either 9 mg of Ephedrine, or 50 μg of Neophenylephrine, or 5 μg of Noradrenaline administered via a peripheral venous route.
Statistical Analysis: • search for the correlation between the Aix measured by SphygmoCor®, with the parameters of the P/F loop at T0 and at T1. • comparison of the evolution of the parameters of the P/F loop as a function of the use of Ephedrine, of Neosynephrine or of Noradrenaline. • comparison of the parameters of the P/F loop at T0 between the patients having cardiovascular risk factors and the patients not having risk factors. • study of the variations of the parameters of the P/F loop before and after vasoconstriction as a function of the patient's susceptibility to illness and of the type of vasoconstrictor used.

The results in this text go back to patent US10653364B2, “Method for the continuous evaluation of the ventriculo-aortic coupling of at-risk patients by analysis of pressure-flow loops” (Assistance Publique—Hopitaux de Paris, priority 2014, dated 2020).

On to `CN[C@@H](C)[C@H](O)c1ccccc1` [Ephedrine], for which the “S2/Stot, Base” value came to 34.2; the “Alpha, Base” value stood at 7.4; the “Beta, Base” value came to 10.9; the “Gamma, Base” value was 1.8. The “S1, Base” value amounted to 1997; the “S2, Base” value is on record as 1709; the “S3, Base” value came out at 1658.8; the “Alpha, Peak” value is 9.5. The “Beta, Peak” value came to 13.3; the “Gamma, Peak” value worked out at 2.4; the “S1, Peak” value stood at 2722; the “S2, Peak” value turned out to be 2694.4. In addition, the “S2/Stot, Peak” value came to 32.6; the “S3, Peak” value is listed as 2242.5; the “change in surface areas (Stot, S1, S2, S3) and angles (alpha, beta and gamma)” value (shortened to “change in surface areas”) is “significant increase”; the “S tot, Base” value is listed as 4889. In addition, the “S tot, Peak” value amounted to 6974.
With `CNC[C@H](O)c1cccc(O)c1` [Neosynephrine], the “S2/Stot, Base” value came out at 26.9; the “Alpha, Base” value turned out to be 8.5; the “Beta, Base” value is recorded as 11.2; the “Gamma, Base” value stood at 2.1. Moreover, the “S1, Base” value worked out at 2028; the “S2, Base” value is 1255.2; the “S3, Base” value was determined as 1851.1; the “Alpha, Peak” value was found to be 10.6. Moreover, the “Beta, Peak” value was determined as 16.2; the “Gamma, Peak” value is reported as 5.4; the “S1, Peak” value is on record as 2516; the “S2, Peak” value worked out at 2624.7. Besides, the “S2/Stot, Peak” value was determined as 31.2; the “S3, Peak” value amounted to 2452.2; the “change in surface areas” value is listed as “significant increase”; the “S tot, Base” value is on record as 5344. Also, the “S tot, Peak” value is given as 7412. Further, the “increase of the beta and gamma angles” value (FIG. 13, for similar pressure increases induced by the vasoconstrictors) is “significantly more than Noradrenaline and Ephedrine”. In addition, where the note is “NEOSYNEPHRINE vs NORADRENALINE”, the “Alpha, Variations (Diff)” value is recorded as −0.02; the “Beta, Variations (Diff)” value came to 2.55; the “Gamma, Variations (Diff)” value is on record as 2.59; the “S1, Variations (Diff)” value is given as 266.01. Moreover, under “NEOSYNEPHRINE vs NORADRENALINE”, the “S1/Stot %, Variations (Diff)” value is on record as −4.61%; the “S2, Variations (Diff)” value was found to be 615.97; the “S2/Stot %, Variations (Diff)” value turned out to be 6.6%; the “S3, Variations (Diff)” value came to 221.27. Further, for the setting “NEOSYNEPHRINE vs NORADRENALINE”, the “S3/Stot %, Variations (Diff)” value is listed as −2.13% and the “S tot, Variations (Diff)” value was 1072.27. The “increase with respect to Stot, beta, gamma and S2 (absolute and S2/Stot)” value (compared with the other two vasoconstrictors) is “greater increase than the other two vasoconstrictors”. The “effect on ventricular-aortic coupling” value (reflected by greater increase in S2 and in beta and gamma angles) is given as “detrimental effect”.
Take `NC[C@H](O)c1ccc(O)c(O)c1` [Noradrenaline]: the “S2/Stot, Base” value is reported as 26.4; the “Alpha, Base” value was 8.5; the “Beta, Base” value is reported as 11.5; the “Gamma, Base” value was determined as 2.2. Further, the “S1, Base” value was determined as 1775; the “S2, Base” value amounted to 1215.9; the “S3, Base” value came to 1860.8; the “Alpha, Peak” value was found to be 10.6. In addition, the “Beta, Peak” value stood at 14.2; the “Gamma, Peak” value was found to be 3.2; the “S1, Peak” value is recorded as 1963.2; the “S2, Peak” value is recorded as 1957.4. The “S2/Stot, Peak” value is reported as 27.9; the “S3, Peak” value was determined as 2311.5; the “change in surface areas” value was “significant increase”; the “S tot, Base” value amounted to 5291. For the same molecule, the “S tot, Peak” value came out at 6582.
